In patent US20190367516A1 (Bayer Pharma Aktiengesellschaft, priority 2015, published 2019):
pEC50: −log10 of the molar value. Like-named read-outs stand apart in the source and are kept apart here.

Assays:
human M2 receptor [1] = biological target: T1, human M2 receptor (Homo sapiens, UniProt P08172)
T1 sequence (P08172 1-466): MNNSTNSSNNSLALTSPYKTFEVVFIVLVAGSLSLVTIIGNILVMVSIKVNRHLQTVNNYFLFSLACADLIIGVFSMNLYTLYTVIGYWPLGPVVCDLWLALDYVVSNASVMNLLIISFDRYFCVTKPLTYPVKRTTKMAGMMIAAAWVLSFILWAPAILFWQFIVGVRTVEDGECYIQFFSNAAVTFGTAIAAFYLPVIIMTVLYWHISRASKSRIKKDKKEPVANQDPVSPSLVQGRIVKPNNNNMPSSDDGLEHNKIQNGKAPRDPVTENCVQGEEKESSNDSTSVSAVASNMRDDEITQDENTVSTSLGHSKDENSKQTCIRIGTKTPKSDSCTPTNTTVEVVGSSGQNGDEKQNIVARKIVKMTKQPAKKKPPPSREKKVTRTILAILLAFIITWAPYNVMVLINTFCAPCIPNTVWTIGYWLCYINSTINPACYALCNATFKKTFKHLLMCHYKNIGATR

human M2 receptor [2] = biological target: T1, human M2 receptor; assay type: cell-based; conditions: α >1 = positive cooperativity
[3] = Receptor activity EC50, M2-GIRK1/4 activation test, acetylcholine at EC20, allosteric potency, in some cases mean values from two or more determinations
[4] = shift in the acetylcholine dose-response curve (Allosteric EC50 shift, GraphPad PRISM)
[5] = Receptor activity EC50, allosteric potency at EC20 acetylcholine, M2-GIRK1/4 reporter cells, in some cases mean of two or more determinations
[6] = read-out: Efficiency, boosting of the acetylcholine effect at EC20 acetylcholine concentration, M2-GIRK1/4 reporter cells
[7] = shift of acetylcholine dose-response curve (Allosteric EC50 shift)

Row | SMILES | pEC50 (human M2 receptor [1]; [3]) | Cooperativity (alpha factor) (human M2 receptor [2]; [4]) | pEC50 (human M2 receptor [1]; [5]) | Emax (human M2 receptor [1]; [6]) | Cooperativity (alpha factor) (human M2 receptor [2]; [7]) | also measured
1 | CO[C@@H]1CCN(c2ccc3c(=O)c(C(=O)NC45CCC(C)(CC4)CC5)cn(-c4ccc(F)cc4F)c3n2)C1 [Example 19, 1-(2,4-Difluorophenyl)-7-[(3R)-3-methoxypyrrolidin-1-yl]-N-(4-methylbicyclo[2.2.2]oct-1-yl)-4-oxo-1,4-dihydro-1,8-naphthyridine-3-carboxamide] | 7.24 | 12 |  |  |  | 
2 | CC[C@H](NC(=O)c1cn(-c2c(F)cccc2F)c2nc(N3C[C@@H](O)CC3=O)ccc2c1=O)C(F)(F)F [Example 333, 1-(2,6-Difluorophenyl)-7-[(4S)-4-hydroxy-2-oxopyrrolidin-1-yl]-4-oxo-N-[(2S)-1,1,1-trifluorobutan-2-yl]-1,4-dihydro-1,8-naphthyridine-3-carboxamide] | 7.51 | 28 |  |  |  | Emax (human M2 receptor [1]; read-out: Efficiency): 94.5%
3 | C[C@@H](O)CN(C)c1ccc2c(=O)c(C(=O)N[C@@H](C3CC3)C(F)(F)F)cn(-c3c(F)cc(F)cc3F)c2n1 [Example 494] |  |  | 7.55 | 78% | 20 | 
4 | CC[C@@H](NC(=O)c1cn(-c2ccc(F)cc2F)c2nc(N3C[C@@H](O)[C@H](O)C3)ccc2c1=O)C(F)(F)F [Example 646, 1-(2,4-Difluorophenyl)-7-[(3R,4R)-3,4-dihydroxypyrrolidin-1-yl]-4-oxo-N-[(2R)-1,1,1-trifluorobutan-2-yl]-1,4-dihydro-1,8-naphthyridine-3-carboxamide] |  |  | 7.13 | 100% | 30 | 
5 | C[C@H](NC(=O)c1cn(-c2ccc(F)cc2F)c2nc(N(C)C)ccc2c1=O)C(F)(F)F [Example 44, 1-(2,4-Difluorophenyl)-7-(dimethylamino)-4-oxo-N-[(2S)-1,1,1-trifluoropropan-2-yl]-1,4-dihydro-1,8-naphthyridine-3-carboxamide] | 6.95 | 12 |  |  |  | 
6 | CC1(F)CCN(c2ccc3c(=O)c(C(=O)NC45CC6CC(CC(C6)C4)C5)cn(-c4ccc(F)cc4F)c3n2)C1 (racemic) [Example 9, rac-1-(2,4-Difluorophenyl)-7-(3-fluoro-3-methylpyrrolidin-1-yl)-4-oxo-N-(tricyclo[3.3.1.1^3,7]dec-1-yl)-1,4-dihydro-1,8-naphthyridine-3-carboxamide] | 7.40 | 11 |  |  |  | 
7 | O=C(NC12CC(C1)C2)c1cn(-c2c(F)cc(F)cc2Cl)c2nc(N3C[C@@H](O)[C@H](O)C3)ccc2c1=O [Example 402, N-(Bicyclo[1.1.1]pent-1-yl)-1-(2-chloro-4,6-difluorophenyl)-7-[(3R,4R)-3,4-dihydroxypyrrolidin-1-yl]-4-oxo-1,4-dihydro-1,8-naphthyridine-3-carboxamide] |  |  | 7.60 | 97.5% | 18 | 
8 | CC[C@@H](COC(F)(F)F)NC(=O)c1cn(-c2c(F)cc(F)cc2F)c2nc(N3C[C@@H](C)NC3=O)ccc2c1=O (single isomer, unassigned) [Example 455] |  |  | 8.00 |  | 17 | Efficiency (human M2 receptor [1]; boosting of the acetylcholine effect at EC20 acetylcholine concentration, M2-GIRK1/4 reporter cells): 100.0%
9 | O=C(NC12CC3CC(CC(C3)C1)C2)c1cn(-c2ccc(F)cc2F)c2nc(N3CCC(O)(O)C(F)(F)C3)ccc2c1=O [Example 6, 7-(3,3-Difluoro-4,4-dihydroxypiperidin-1-yl)-1-(2,4-difluorophenyl)-4-oxo-N-(tricyclo[3.3.1.1^3,7]dec-1-yl)-1,4-dihydro-1,8-naphthyridine-3-carboxamide] | 7.47 | 15 |  |  |  | 
10 | O=C(NC(C(F)(F)F)C(F)(F)F)c1cn(-c2ccc(F)cc2F)c2nc(NCCF)ccc2c1=O [Example 89, 1-(2,4-Difluorophenyl)-7-[(2-fluoroethyl)amino]-N-(1,1,1,3,3,3-hexafluoropropan-2-yl)-4-oxo-1,4-dihydro-1,8-naphthyridine-3-carboxamide] | 6.38 | 20 |  |  |  | 
11 | CC[C@@H](NC(=O)c1cn(-c2c(F)cccc2Cl)c2nc(N3CC4CC4(O)C3)ccc2c1=O)C(F)(F)F (mixture of isomers) [Example 310, 1-(2-Chloro-6-fluorophenyl)-7-[1-hydroxy-3-azabicyclo[3.1.0]hex-3-yl]-4-oxo-N-[(2R)-1,1,1-trifluorobutan-2-yl]-1,4-dihydro-1,8-naphthyridine-3-carboxamide] | 7.85 | 21 |  |  |  | 
12 | O=C(NC(c1c(F)cccc1F)C(F)(F)F)c1cn(-c2ccc(F)cc2F)c2nc(N3CC[C@H](F)C3)ccc2c1=O (single isomer, unassigned) [Example 242] | 7.05 | 10 |  |  |  | 
13 | CC1(C)CN(c2ccc3c(=O)c(C(=O)N[C@@H](C4CC4)C(F)(F)F)cn(-c4c(F)cc(F)cc4F)c3n2)C(=O)N1 [Example 451, N-[(1 S)-1-Cyclopropyl-2,2,2-trifluoroethyl]-7-(4,4-dimethyl-2-oxoimidazolidin-1-yl)-4-oxo-1-(2,4,6-trifluorophenyl)-1,4-dihydro-1,8-naphthyridine-3-carboxamide] |  |  | 8.10 | 91% | 21 | 
14 | CN(C)c1ccc2c(=O)c(C(=O)NCc3ccccc3C(F)(F)F)cn(-c3ccc(F)cc3F)c2n1 [Example 59, 1-(2,4-Difluorophenyl)-7-(dimethylamino)-4-oxo-N-[2-(trifluoromethyl)benzyl]-1,4-dihydro-1,8-naphthyridine-3-carboxamide] | 7.03 | 11 |  |  |  | 
15 | O=C(NC(CC(F)(F)F)C1CC1)c1cn(-c2c(F)cc(F)cc2F)c2nc(N3C[C@@H](O)[C@H](O)C3)ccc2c1=O (single isomer, unassigned) [Example 439] |  |  | 7.70 | 100% | 35 | 
16 | CC[C@@H](NC(=O)c1cn(-c2c(F)cc(F)cc2F)c2nc(N3CCC(O)C3=O)ccc2c1=O)C(F)(F)F (stereo partly drawn) [Example 282, 7-[3-Hydroxy-2-oxopyrrolidin-1-yl-4-oxo-N-[(2R)-1,1,1-trifluorobutan-2-yl]-4-oxo-N-trifluorobutan-2-yl]-1-(2,4,6-trifluorophenyl)-1,4-dihydro-1,8-naphthyridine-3-carboxamide] |  | 32 |  |  |  | pEC50 (human M2 receptor [1]; read-out: Receptor activity EC50, M2-GIRK1/4 activation test, acetylcholine at EC20, allosteric potency, in some cases mean values from two or more determinations): 7.68
17 | O=C(NC12CC3CC(CC(C3)C1)C2)c1cn(-c2ccc(F)cc2F)c2nc(N3CCC3=O)ccc2c1=O [Example 168] | 7.22 | 13 |  |  |  | 
18 | CC[C@H](NC(=O)c1cn(-c2c(F)cc(F)cc2F)c2nc(N3CCN(C(=O)OC)CC3)ccc2c1=O)C(F)(F)F [Example 595, Methyl 4-[5-oxo-6-{[(2S)-1,1,1-trifluorobutan-2-yl]carbamoyl}-8-(2,4,6-trifluorophenyl)-5,8-dihydro-1,8-naphthyridin-2-yl]piperazine-1-carboxylate] |  |  | 7.72 | 94% | 36 | 
19 | O=C(NC12CC(C1)C2)c1cn(-c2c(F)cc(F)cc2F)c2nc(N3C[C@@H](O)CC3=O)ccc2c1=O [Example 358, N-(Bicyclo[1.1.1]pent-1-yl)-7-[(4S)-4-hydroxy-2-oxopyrrolidin-1-yl]-4-oxo-1-(2,4,6-trifluorophenyl)-1,4-dihydro-1,8-naphthyridine-3-carboxamide] | 7.62 | 31 |  |  |  | 
